Source: patent publication US11008323B2, “Substituted tricyclic 1,4-benzodiazepinone derivatives as allosteric modulators of group II metabotropic glutamate receptors” (Domain Therapeutics, priority 2015, dated 2021)

How the values were obtained:
cortical primary neurons = experiment: NMDA-induced neurotoxicity assay on cortical primary neurons (MTT test); assay type: cell-based, mouse; conditions: 24 hours
Method: Primary mouse neurons were incubated with vehicle or NMDA (60 μM)+vehicle or example 207 or LY379268 (mixed mGluR2/3 agonist used as positive control) for 24 hours. Tests were performed in triplicate. Neuron viability was measured using a MTT test.

striatal primary neurons = experiment: NMDA-induced neurotoxicity assay on striatal primary neurons (MTT test); assay type: cell-based, mouse; conditions: 24 hours
Method: Primary mouse neurons were incubated with vehicle or NMDA (60 μM)+vehicle or example 63 or LY379268 (mixed mGluR2/3 agonist used as positive control) for 24 hours. Tests were performed in triplicate. Neuron viability was measured using a MTT test.

human mGluR3 (hmGluR3) = molecular target: T1, human mGluR3 (hmGluR3) (Homo sapiens, UniProt Q14832); experiment: Human mGluR3 positive allosteric modulator evaluation using Ca++ functional assay; assay type: cell-based; conditions: hmGluR3 transiently over-expressed in HEK-293 cells; stimulated by EC50 glutamate concentration; intracellular Ca2+ (Fluo4AM, FLIPR Tetra)
T1 construct: expressed in transfected cells; host or cells: HEK-293 cells, transient co-transfection by electroporation
T1 sequence (Q14832 23-879): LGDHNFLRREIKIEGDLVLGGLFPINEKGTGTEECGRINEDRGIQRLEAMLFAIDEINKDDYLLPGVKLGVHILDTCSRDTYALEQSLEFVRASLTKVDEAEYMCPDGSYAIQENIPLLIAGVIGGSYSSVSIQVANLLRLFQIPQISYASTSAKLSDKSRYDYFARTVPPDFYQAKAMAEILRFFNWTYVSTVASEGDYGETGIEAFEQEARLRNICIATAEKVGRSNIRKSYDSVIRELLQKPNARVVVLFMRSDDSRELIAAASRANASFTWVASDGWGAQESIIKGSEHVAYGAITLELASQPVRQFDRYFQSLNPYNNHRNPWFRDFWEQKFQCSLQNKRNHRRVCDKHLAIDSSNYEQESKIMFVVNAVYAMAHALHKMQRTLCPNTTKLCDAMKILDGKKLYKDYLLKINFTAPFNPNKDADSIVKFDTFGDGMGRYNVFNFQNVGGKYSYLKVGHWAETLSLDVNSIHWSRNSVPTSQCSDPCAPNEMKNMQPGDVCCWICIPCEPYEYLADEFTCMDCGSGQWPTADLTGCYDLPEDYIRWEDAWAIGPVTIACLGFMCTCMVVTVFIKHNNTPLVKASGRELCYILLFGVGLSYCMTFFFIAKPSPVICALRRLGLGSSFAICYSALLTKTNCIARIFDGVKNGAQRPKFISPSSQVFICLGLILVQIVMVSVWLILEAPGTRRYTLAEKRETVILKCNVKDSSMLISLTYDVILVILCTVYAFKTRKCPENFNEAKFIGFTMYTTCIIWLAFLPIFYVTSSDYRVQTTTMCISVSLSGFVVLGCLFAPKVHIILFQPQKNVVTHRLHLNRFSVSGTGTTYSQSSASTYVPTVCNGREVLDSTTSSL
Outline: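 HEK-293 cells transiently co-expressing hmGluR3, a chimeric G protein and two glutamate transporters; Fluo4 calcium read on FLIPR. Compound alone for 10 min (agonist), then EC50 glutamate for 3 min (PAM); 20-point curves gave EC50, duplicate, two independent runs.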

In the case of `N[C@@]1(C(=O)O)CO[C@H]2[C@H](C(=O)O)[C@H]21` [LY379268], the “NMDA-induced toxicity, cortical primary neurons” value (cortical primary neurons; at 1 μM, NMDA 60 μM) is reported as “decreases NMDA-induced toxicity”, the “toxicity alone, cortical primary neurons” value (cortical primary neurons; reference alone) is reported as “no toxicity alone” and the “NMDA-induced toxicity, striatal primary neurons” value (striatal primary neurons; at 1 μM, NMDA 60 μM) is reported as “decreases NMDA-induced toxicity”. The “toxicity alone, striatal primary neurons” value (striatal primary neurons; reference alone) was “no toxicity alone”.
For `CN[C@H](CC(=O)O)C(=O)O` [NMDA, N-methyl-D-aspartate], the “reduction of the neuron viability, cortical primary neurons” value (cortical primary neurons; NMDA 60 μM + vehicle) was ~50% and the “reduction of the neuron viability, striatal primary neurons” value (striatal primary neurons; NMDA 60 μM + vehicle) was ~70%.
With `CN1C(=O)c2cccn2-c2cc(-c3ccc(F)cn3)ccc2C12CC2` [Example 63, 5-Methyl-9-(5-fluoropyridin-2-yl)-spiro[benzo[f]pyrrolo[1,2-a][1,4]diazepine-6,1′-cyclopropan]-4(5H)-one] the “toxicity induced by NMDA (neuroprotection), striatal primary neurons” value (striatal primary neurons; NMDA 60 μM, effect tending to disappear at 30 μM) was “reduces in a dose-dependent manner the toxicity induced by NMDA up to 10 μM”, the “toxicity on striatal primary neuron viability” value (striatal primary neurons; alone, in absence of NMDA challenge, 30 nM to 30 μM) was “no toxicity” and the EC50 (human mGluR3 (hmGluR3)) was < 100 nM. The melting point was 148 to 156 °C.
